This note sets out measurements from patent US12162858B2, “Quinoline derivatives as inhibitors of AXL/MER RTK and CSF1R” (QURIENT CO., LTD., priority 2018, dated 2024).

As a reminder, the IC50 is the concentration that gives 50% inhibition. Low readings indicate higher potency, high ones lower potency.

SMILES strings stand for the structures.

Chain of CSF1R (P07333 20-972): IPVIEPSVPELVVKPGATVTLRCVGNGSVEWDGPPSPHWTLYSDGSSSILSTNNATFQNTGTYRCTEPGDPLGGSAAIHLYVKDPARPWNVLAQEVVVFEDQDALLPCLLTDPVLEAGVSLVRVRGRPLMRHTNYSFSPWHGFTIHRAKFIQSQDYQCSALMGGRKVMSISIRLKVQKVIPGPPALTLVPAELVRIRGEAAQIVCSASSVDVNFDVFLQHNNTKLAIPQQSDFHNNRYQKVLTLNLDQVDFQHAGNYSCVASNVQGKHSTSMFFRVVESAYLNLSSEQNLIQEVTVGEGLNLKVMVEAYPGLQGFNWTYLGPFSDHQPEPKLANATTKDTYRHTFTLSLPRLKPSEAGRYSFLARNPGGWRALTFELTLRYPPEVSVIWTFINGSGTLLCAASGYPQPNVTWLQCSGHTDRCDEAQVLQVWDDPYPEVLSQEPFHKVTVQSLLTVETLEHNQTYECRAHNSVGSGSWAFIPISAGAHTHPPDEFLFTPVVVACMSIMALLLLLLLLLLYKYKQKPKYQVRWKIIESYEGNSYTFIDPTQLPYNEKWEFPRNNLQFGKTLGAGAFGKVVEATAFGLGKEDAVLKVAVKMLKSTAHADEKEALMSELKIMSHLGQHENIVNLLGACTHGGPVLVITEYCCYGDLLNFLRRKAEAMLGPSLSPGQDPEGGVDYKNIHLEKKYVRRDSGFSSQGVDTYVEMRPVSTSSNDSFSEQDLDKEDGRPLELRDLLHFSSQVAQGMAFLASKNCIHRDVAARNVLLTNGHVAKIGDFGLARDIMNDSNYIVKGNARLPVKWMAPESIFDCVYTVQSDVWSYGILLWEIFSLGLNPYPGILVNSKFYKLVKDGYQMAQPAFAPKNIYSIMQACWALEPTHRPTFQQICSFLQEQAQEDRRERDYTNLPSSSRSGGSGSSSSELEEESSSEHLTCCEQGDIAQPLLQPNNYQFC

The experiment concerns the target CSF1R (Homo sapiens, UniProt P07333). Kind of experiment: Cellular CSF1R inhibition ELISA (p-CSF1R, M-CSF-induced) using THP-1 cells. It counts as cell-based. Also noted: THP-1 cells act as a model for human monocytes; endogenous in cells; host or cells: THP-1. The method, boiled down:
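THP-1 cells (2×10^5/well, RPMI/10% FBS) were treated with compound, 10 doses in 3-fold steps, for 24 h at 37 °C in 0.2% DMSO final. They were then stimulated 5 min with human M-CSF (10 ng/ml final) and lysed. p-CSF1R was read by sandwich ELISA (HRP/TMB), with a sigmoidal dose-response fit.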
For orientation: An ELISA detects its analyte on a solid surface through an enzyme-linked reagent.
Consider `COc1cc2nccc(Oc3ccc(NC(=O)c4nn(CCO)cc4OCC(F)(F)F)cc3)c2cc1OC` [Compound 59], for which the IC50 was < 500 nM.

Take `COc1cc2nccc(Oc3ccc(NC(=O)c4nn(C5CCCC5)cc4OCC(F)(F)F)cc3)c2cc1OC` [Compound 60]: the IC50 fell in the range of 500 to 1000 nM.

For the molecule `COCCn1cc(OCC(F)(F)F)c(C(=O)Nc2ccc(Oc3ccnc4cc(OC)c(OC)cc34)cc2)n1` [Compound 61], the concentration for half-maximal inhibition (IC50) was ≥ 1000 nM.

`COc1cc2nccc(Oc3ccc(NC(=O)c4nn(C5CCOC5)cc4OCC(F)(F)F)cc3)c2cc1OC` (centres unmarked) [Compound 62]: the IC50 is ≥ 1000 nM.

Regarding `COc1cc2nccc(Oc3ccc(NC(=O)c4nn(CC(C)N)cc4OCC(F)(F)F)nc3)c2cc1OC` (centres unmarked) [Compound 63], the IC50 is 500 to 1000 nM.

For `COc1cc2nccc(Oc3ccc(NC(=O)c4nn(CC(C)(F)F)cc4OCC(F)(F)F)nc3)c2cc1OC` [Compound 64], the IC50 was < 500 nM.

Regarding `COc1cc2nccc(Oc3ccc(NC(=O)c4nn(CCOC5CCC5)cc4OCC(F)(F)F)nc3)c2cc1OC` [Compound 65], the IC50 was < 500 nM.

On to `COc1cc2nccc(Oc3ccc(NC(=O)c4nn(C5COC5)cc4OCC(F)(F)F)nc3)c2cc1OC` [Compound 66], for which the IC50 is < 500 nM.

For `COc1cc2nccc(Oc3ccc(NC(=O)c4nn(CCO)cc4OCC(F)(F)F)nc3)c2cc1OC` [Compound 67], the IC50 was < 500 nM.

Turning to `COc1cc2nccc(Oc3ccc(NC(=O)c4nn(CCCN)cc4OCC(F)(F)F)nc3)c2cc1OC` [Compound 68], the IC50 is < 500 nM.

Turning to `COc1cc2nccc(Oc3ccc(NC(=O)c4nn(C5CCCCC5)cc4OCC(F)(F)F)nc3)c2cc1OC` [Compound 69], the 50% inhibitory concentration (IC50) is < 500 nM.

As to `COc1cc2nccc(Oc3ccc(NC(=O)c4nn(C5CCNC5)cc4OCC(F)(F)F)nc3)c2cc1OC` (centres unmarked) [Compound 70], the IC50 is 500 to 1000 nM.

In the case of `COc1cc2nccc(Oc3ccc(NC(=O)c4nn(CC5CCCC5)cc4OCC(F)(F)F)nc3)c2cc1OC` [Compound 71], the IC50 was < 500 nM.

In the case of `COc1cc2nccc(Oc3ccc(NC(=O)c4nn(CC5CCNC5)cc4OCC(F)(F)F)nc3)c2cc1OC` (centres unmarked) [Compound 72], the IC50 was < 500 nM.

In the case of `COc1cc2nccc(Oc3ccc(NC(=O)c4nn(CC5CNC5)cc4OCC(F)(F)F)nc3)c2cc1OC` [Compound 73], the IC50 was < 500 nM.

As to `COc1cc2nccc(Oc3ccc(NC(=O)c4nn(C5CCNC5)cc4OCC(F)(F)F)c(F)c3)c2cc1OC` (centres unmarked) [Compound 74], the IC50 is ≥ 1000 nM.

For `COc1cc2nccc(Oc3ccc(NC(=O)c4nn(CCN)cc4OCC(F)(F)F)c(F)c3)c2cc1OC` [Compound 75], the IC50 is ≥ 1000 nM.

In the case of `COc1cc2nccc(Oc3ccc(NC(=O)c4nn(CC(C)O)cc4OCC(F)(F)F)c(F)c3)c2cc1OC` (centres unmarked) [Compound 76], the IC50 is ≥ 1000 nM.

Take `COc1cc2nccc(Oc3ccc(NC(=O)c4nn(CCC(F)(F)F)cc4OCC4CCC4)nc3)c2cc1OC` [Compound 166]: the IC50 is ≥ 1000 nM.

For the molecule `CCCn1cc(OCC2CCC2)c(C(=O)Nc2ccc(Oc3ccnc4cc(OC)c(OC(F)(F)F)cc34)cn2)n1` [Compound 167], the IC50 is ≥ 1000 nM.

With `COc1cc2nccc(Oc3ccc(NC(=O)c4nn(CCNC5CC5)cc4OCC(F)(F)F)nc3)c2cc1OC` [Compound 168], the IC50 is < 500 nM.

As for `COc1cc2nccc(Oc3ccc(NC(=O)c4nn(CC5CCN(C)C5)cc4OCC(F)(F)F)nc3)c2cc1OC` (centres unmarked) [Compound 169], the IC50 was < 500 nM.

For `COc1cc2nccc(Oc3ccc(NC(=O)c4nn(C5CC5)cc4OCCC(F)(F)F)nc3)c2cc1OC` [Compound 170], the IC50 is < 500 nM.

For the molecule `COCCOc1cn(C2CC2)nc1C(=O)Nc1ccc(Oc2ccnc3cc(OC)c(OC)cc23)nn1` [Compound 171], the IC50 is ≥ 1000 nM.

On to `COc1cc2nccc(Oc3ccc(NC(=O)c4nn(C5CC5)cc4OCC4CNC4)nn3)c2cc1OC` [Compound 172], for which the IC50 was ≥ 1000 nM.

Regarding `COc1cc2nccc(Oc3ccc(NC(=O)c4nn(C5CC5)cc4OCCC(F)(F)F)nn3)c2cc1OC` [Compound 173], the IC50 is ≥ 1000 nM.

As to `COc1cc2nccc(Oc3ccc(NC(=O)c4nn(CC(C)O)cc4OCC4CN(C)C4)nc3)c2cc1OC` (centres unmarked) [Compound 174], the IC50 was ≥ 1000 nM.

Take `COc1cc2nccc(Oc3ccc(NC(=O)c4nn(CC(C)O)cc4OCC(F)F)nc3)c2cc1OC` (centres unmarked) [Compound 175]: the IC50 is < 500 nM.

Consider `COc1cc2nccc(Oc3ccc(NC(=O)c4nc(CCC(F)(F)F)oc4CCC4CCC4)nc3)c2cc1OC` [Compound 176], for which the IC50 is ≥ 1000 nM.

As to `CCCn1cc(OCCN(C)C)c(C(=O)Nc2ccc(Oc3ccnc4cc(OC)c(OC)cc34)cn2)n1` [Compound 177], the IC50 was ≥ 1000 nM.

On to `COc1cc2nccc(Oc3ccc(NC(=O)c4cc(C5CC5)cnc4OCC(F)(F)F)nc3)c2cc1OC` [Compound 178], for which the IC50 is < 500 nM.

For the molecule `COc1cc2nccc(Oc3ccc(NC(=O)c4sc(C5CC5)cc4OCC(F)(F)F)nc3)c2cc1OC` [Compound 179], the IC50 was < 500 nM.
